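Assay format: 96-well plates, 48-hour exposure. The concentration for 50% growth inhibition is given as GI50.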 Calls of active or inactive are those of the source. No stated cut-off is given here; in the data, active = GI50 up to about 1.1 µM and inactive = higher.
What was measured:
Experiment in all cases: inhibition of tumour cell growth, NCI panel, 48 h
RXF 393 = tested on: RXF 393
MOLT-4 = tested on: MOLT-4
786-0 = tested on: 786-0
SK-MEL-28 = tested on: SK-MEL-28
U-251 = tested on: U-251
A498 = tested on: A498
NCI/ADR-RES = tested on: NCI/ADR-RES
A549 = tested on: A549
UO-31 = tested on: UO-31
HT-29 = tested on: HT-29
SNB-75 = tested on: SNB-75
HCT-15 = tested on: HCT-15
OVCAR-3 = tested on: OVCAR-3
Malme-3M = tested on: Malme-3M
EKVX = tested on: EKVX
KM12 = tested on: KM12
PC-3 = tested on: PC-3
SK-OV-3 = tested on: SK-OV-3
CCRF-CEM = tested on: CCRF-CEM
UACC-257 = tested on: UACC-257

SMILES	GI50 (RXF 393)	GI50 (MOLT-4)	GI50 (786-0)	GI50 (SK-MEL-28)	GI50 (U-251)	GI50 (A498)	GI50 (NCI/ADR-RES)	GI50 (A549)	GI50 (UO-31)	GI50 (HT-29)	GI50 (SNB-75)	GI50 (HCT-15) [µM]	GI50 (OVCAR-3)	GI50 (Malme-3M)	GI50 (EKVX)	GI50 (KM12)	GI50 (PC-3)	GI50 (SK-OV-3)	GI50 (CCRF-CEM)	GI50 (UACC-257)
C/C=C/[C@H](O[Si](C)(C)C(C)(C)C)[C@@H](O)/C=C/C(=O)OCC	21.8 µM (inactive)	18.6 µM (inactive)	20.8 µM (inactive)	16.9 µM (inactive)	19.4 µM (inactive)	30.3 µM (inactive)	26.8 µM (inactive)	30.1 µM (inactive)	24 µM (inactive)	21.5 µM (inactive)	37.5 µM (inactive)	14.4	19.6 µM (inactive)	14.7 µM (inactive)	20.7 µM (inactive)	18 µM (inactive)	33.3 µM (inactive)	> 10 µM (inactive)	14.3 µM (inactive)	19 µM (inactive)
Clc1ccc(CSCCc2ccncc2)cc1Cl	21.9 µM (inactive)	15.8 µM (inactive)	17.2 µM (inactive)	22.7 µM (inactive)	15.2 µM (inactive)	13.2 µM (inactive)	19.7 µM (inactive)	28.1 µM (inactive)	21 µM (inactive)	15.7 µM (inactive)	22.9 µM (inactive)	22.9	16.1 µM (inactive)	21 µM (inactive)	20.4 µM (inactive)	21.2 µM (inactive)	21.2 µM (inactive)	27.8 µM (inactive)	20.6 µM (inactive)	35.9 µM (inactive)
NNC(=O)CCSc1ccccc1	> 100 µM (inactive)	> 100 µM (inactive)	> 100 µM (inactive)	> 100 µM (inactive)	> 100 µM (inactive)	> 100 µM (inactive)	> 100 µM (inactive)	> 100 µM (inactive)	> 100 µM (inactive)	> 100 µM (inactive)	> 100 µM (inactive)	> 100	> 100 µM (inactive)	> 100 µM (inactive)	> 100 µM (inactive)	> 100 µM (inactive)	> 100 µM (inactive)	> 100 µM (inactive)	> 100 µM (inactive)	> 100 µM (inactive)
NCC(=O)C(O)C(O)C(O)CO (stereo not given)	> 100 µM (inactive)	> 100 µM (inactive)	> 100 µM (inactive)	> 100 µM (inactive)	> 100 µM (inactive)	> 100 µM (inactive)	> 100 µM (inactive)	> 100 µM (inactive)	> 100 µM (inactive)	> 100 µM (inactive)	65.9 µM (inactive)	> 100	> 100 µM (inactive)	> 100 µM (inactive)	> 100 µM (inactive)	> 100 µM (inactive)	> 100 µM (inactive)	> 100 µM (inactive)	> 100 µM (inactive)	> 100 µM (inactive)
Nc1ccc(/N=N\c2ccc(-c3ccc(O)cc3)cc2)c2ccc(S(=O)(=O)O)cc12	> 100 µM (inactive)	> 100 µM (inactive)	> 100 µM (inactive)	> 100 µM (inactive)	> 100 µM (inactive)	> 100 µM (inactive)	> 100 µM (inactive)	> 100 µM (inactive)	> 100 µM (inactive)	> 100 µM (inactive)	77.1 µM (inactive)	> 100	> 100 µM (inactive)	> 100 µM (inactive)	> 100 µM (inactive)	> 100 µM (inactive)	> 100 µM (inactive)	> 100 µM (inactive)	> 100 µM (inactive)	> 100 µM (inactive)
C1CN(c2nnc(N3CCC3)nn2)C1	> 63.5 µM (inactive)	> 100 µM (inactive)	34.8 µM (inactive)	44.5 µM (inactive)	> 71.8 µM (inactive)	> 100 µM (inactive)	> 53 µM (inactive)	> 100 µM (inactive)	> 100 µM (inactive)	35.6 µM (inactive)	21 µM (inactive)	> 100	> 92.7 µM (inactive)	44.4 µM (inactive)	> 85.3 µM (inactive)	> 89.5 µM (inactive)	> 46 µM (inactive)	> 100 µM (inactive)	> 100 µM (inactive)	22.9 µM (inactive)
COC(=O)C(Cc1c[nH]c2ccccc12)NC1=Nc2ccncc2S(=O)(=O)N1c1cccc(OC(C)C)c1 (stereo not given)	> 100 µM (inactive)	8.91 µM (inactive)	34.2 µM (inactive)	> 100 µM (inactive)	47.6 µM (inactive)	82 µM (inactive)	20.9 µM (inactive)	29.6 µM (inactive)	45.3 µM (inactive)	34.2 µM (inactive)	53.2 µM (inactive)	43.2	36 µM (inactive)	56.1 µM (inactive)	36.6 µM (inactive)	63.2 µM (inactive)	39.9 µM (inactive)	> 100 µM (inactive)	20.6 µM (inactive)	> 100 µM (inactive)
C/C(=N\Nc1nc2ccccc2s1)c1cc(C)ncn1	3.02 µM (inactive)	0.104 µM (active)	0.507 µM (active)	3.09 µM (inactive)	1 µM (active)	9.93 µM (inactive)	0.371 µM (active)	2.25 µM (inactive)	0.389 µM (active)	0.0637 µM (active)	1.34 µM (inactive)	0.394	0.408 µM (active)	0.372 µM (active)	0.269 µM (active)	0.767 µM (active)	0.612 µM (active)	1.28 µM (inactive)	0.0929 µM (active)	0.29 µM (active)
Cc1cccc(Cn2c3c(c4cc(O)ccc42)C(=O)c2ccccc2C3=O)c1	5.6 µM (inactive)	> 83.6 µM (inactive)	3.86 µM (inactive)	> 39.6 µM (inactive)	8.59 µM (inactive)	> 90.8 µM (inactive)	6.84 µM (inactive)	11.3 µM (inactive)	> 54.2 µM (inactive)	> 58.5 µM (inactive)	1.97 µM (inactive)	54.7	> 31.6 µM (inactive)	19.1 µM (inactive)	3.95 µM (inactive)	41.2 µM (inactive)	6.27 µM (inactive)	3.44 µM (inactive)	28.1 µM (inactive)	> 100 µM (inactive)
COc1cc2c(cc1OC)C(=O)/C(=C/c1ccccc1)CC2	> 100 µM (inactive)	18.1 µM (inactive)	34.9 µM (inactive)	64.9 µM (inactive)	53.2 µM (inactive)	26.1 µM (inactive)	17.3 µM (inactive)	27.7 µM (inactive)	> 100 µM (inactive)	17.9 µM (inactive)	17 µM (inactive)	20.8	37.6 µM (inactive)	> 100 µM (inactive)	56.1 µM (inactive)	14.4 µM (inactive)	42.5 µM (inactive)	25.5 µM (inactive)	5.83 µM (inactive)	61.2 µM (inactive)
COc1cc2cc(C(=O)N3CC(CCl)c4ccc([N+](C)(C)Cc5ccc([N+](=O)[O-])cc5)cc43)[nH]c2c(OC)c1OC (stereo not given)	1.36 µM (inactive)	2.1 µM (inactive)	2.32 µM (inactive)	9.29 µM (inactive)	2.71 µM (inactive)	1.76 µM (inactive)	1.71 µM (inactive)	1.8 µM (inactive)	2.1 µM (inactive)	2.03 µM (inactive)	3.3 µM (inactive)	3.2	1.96 µM (inactive)	2.48 µM (inactive)	5.69 µM (inactive)	2.77 µM (inactive)	2.09 µM (inactive)	2.28 µM (inactive)	2.01 µM (inactive)	1.83 µM (inactive)
CSc1nc2ccccc2c(=O)n1-c1cccc(C)c1	81.8 µM (inactive)	28.8 µM (inactive)	> 100 µM (inactive)	> 100 µM (inactive)	> 100 µM (inactive)	19.9 µM (inactive)	48.4 µM (inactive)	94.2 µM (inactive)	0.364 µM (active)	38.6 µM (inactive)	32 µM (inactive)	36.2	> 100 µM (inactive)	> 100 µM (inactive)	73.6 µM (inactive)	45.3 µM (inactive)	46.6 µM (inactive)	> 100 µM (inactive)	32.6 µM (inactive)	31.1 µM (inactive)
Brc1ccc(/N=C/C=C(\Nc2ccc(Br)cc2)C23CC4CC(CC(C4)C2)C3)cc1	14.7 µM (inactive)	6.07 µM (inactive)	13.9 µM (inactive)	18.5 µM (inactive)	14.4 µM (inactive)	14.1 µM (inactive)	20 µM (inactive)	22.5 µM (inactive)	17.7 µM (inactive)	18 µM (inactive)	17 µM (inactive)	6.34	14.1 µM (inactive)	19.1 µM (inactive)	18.8 µM (inactive)	12.7 µM (inactive)	16.1 µM (inactive)	18.6 µM (inactive)	1.63 µM (inactive)	16.6 µM (inactive)
NC1(C(=O)OCc2ccccc2)CCCC1	17.4 µM (inactive)	11.8 µM (inactive)	18 µM (inactive)	22.6 µM (inactive)	16.3 µM (inactive)	41.3 µM (inactive)	28.6 µM (inactive)	28.8 µM (inactive)	15.6 µM (inactive)	37.8 µM (inactive)	18 µM (inactive)	22.9	11.6 µM (inactive)	16.5 µM (inactive)	24.5 µM (inactive)	26 µM (inactive)	27.2 µM (inactive)	21.9 µM (inactive)	11.4 µM (inactive)	19.2 µM (inactive)
